Assay results published in patent US6878722B2, “Substituted cycloalkyl P1′ hepatitis C virus inhibitors” (Bristol-Myers Squibb Company, priority 2002, dated 2005).
Where two headings read alike, the source gives them in different places.

Assays:
[1] = biological target: T1, HCV NS3/4A protease complex (BMS strain, genotype 1a) (Hepatitis C virus genotype 1a, UniProt P27958, C1454S); assay: Recombinant HCV NS3/4A protease complex FRET peptide assay, BMS strain; assay type: biochemical; conditions: IC50 range, NS3/4A BMS Strain
T1 construct: DNA encoding the recombinant HCV NS3/4A protease complex (amino acids 1027 to 1711) for these strains; inferred from the pET21b vector and Ni-NTA purification; made in house; host or cells: Escherichia coli BL21 (DE3), pET21b
T1 sequence (P27958 1658-1714, looked up, stated change not applied): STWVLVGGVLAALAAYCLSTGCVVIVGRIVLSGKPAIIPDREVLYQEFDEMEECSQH
T1 sequence (P27958 1027-1657, looked up, stated change not applied): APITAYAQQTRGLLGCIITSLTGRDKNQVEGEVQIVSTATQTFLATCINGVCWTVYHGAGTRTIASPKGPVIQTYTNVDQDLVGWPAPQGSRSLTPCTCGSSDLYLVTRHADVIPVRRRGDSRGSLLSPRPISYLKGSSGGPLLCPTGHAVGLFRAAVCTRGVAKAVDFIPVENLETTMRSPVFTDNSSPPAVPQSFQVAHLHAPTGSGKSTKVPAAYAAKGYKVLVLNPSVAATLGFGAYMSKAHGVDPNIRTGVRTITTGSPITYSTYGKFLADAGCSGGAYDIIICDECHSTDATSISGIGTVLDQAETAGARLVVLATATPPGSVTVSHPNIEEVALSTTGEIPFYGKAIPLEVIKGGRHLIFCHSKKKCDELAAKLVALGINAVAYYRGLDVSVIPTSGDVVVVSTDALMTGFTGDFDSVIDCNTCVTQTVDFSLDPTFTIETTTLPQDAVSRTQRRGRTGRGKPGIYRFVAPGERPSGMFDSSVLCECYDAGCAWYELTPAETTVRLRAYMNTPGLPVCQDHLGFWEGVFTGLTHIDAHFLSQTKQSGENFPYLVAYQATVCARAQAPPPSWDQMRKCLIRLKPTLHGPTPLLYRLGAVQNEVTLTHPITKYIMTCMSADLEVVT
Procedure, shortened: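 Recombinant NS3/4A complex (aa 1027–1711) with C-terminal three-lysine tail, C1711G and C1454S, expressed in E. coli BL21(DE3) and purified by Ni-NTA then Superdex-S200. Inhibition of the complex from each strain measured in vitro by FRET peptide cleavage.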

[2] = tested on: HCV replicon in Huh7 cells; assay: HCV replicon cell-based assay (FRET); conditions: Hepatitis C virus
Procedure, shortened: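 Huh7 cells stably carrying a genotype 1b HCV replicon (IRES-neo-EMCV-IRES-NS3-NS5B) were treated with compound for 4 days at 37 °C in 0.5% DMSO final. Lysates containing 10 μM FRET peptide RET S1 were read kinetically at 340/490 nm to give NS3 protease activity, from which EC50 was derived.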

[3] = Huh-7, HCV replicon, read-out: EC50 range

C=C[C@@H]1C[C@]1(NC(=O)[C@@H]1C[C@@H](Oc2cc(-c3ccccc3)nc3cc(OC)ccc23)CN1C(=O)[C@@H](NC(=O)NC(C)(C)C)C(C)(C)C)C(=O)NS(=O)(=O)C1(Cc2ccccc2)CC1 [Compound 62, 1-[2-(3-tert-Butyl-ureido)-3,3-dimethyl-butyryl]-4-(7-methoxy-2-phenyl-quinolin-4-yloxy)-pyrrolidine-2-carboxylic acid [1-(1-benzylcyclopropanesulfonylaminocarbonyl)-2-vinyl-cyclopropyl]-amide]
IC50 [1]: < 50 nM | EC50 [2, 3]: 50 to 500 nM

C=C[C@@H]1C[C@]1(NC(=O)[C@@H]1C[C@@H](Oc2cc(-c3ccccc3)nc3cc(OC)ccc23)CN1C(=O)[C@@H](NC(=O)Oc1cccc(C(F)(F)F)c1)C(C)(C)C)C(=O)NS(=O)(=O)C1(Cc2ccccc2)CC1 [Compound 108]
IC50 [1]: 50 to 500 nM | EC50 [2, 3]: 500 to 5000 nM

C=C[C@@H]1C[C@]1(NC(=O)[C@@H]1C[C@@H](Oc2cc(-c3ccccc3)nc3cc(OC)ccc23)CN1C(=O)[C@@H](NC(=O)CCOC)C(C)(C)C)C(=O)NS(=O)(=O)C1(Cc2ccccc2)CC1 [Compound 112]
IC50 [1]: 50 to 500 nM | EC50 [2, 3]: 50 to 500 nM

C=CC1C[C@]1(NC(=O)[C@@H]1C[C@@H](Oc2cc(-c3ccccc3)nc3cc(OC)ccc23)CN1C(=O)[C@@H](NC(=O)OC(C)(C)C)C(C)(C)C)C(=O)NS(=O)(=O)C1(C(=O)Nc2c(C)noc2C)CC1 (some centres unmarked) [Compound 10, {1-[2-{1-[1-(3,5-Dimethylisoxazol-4-ylcarbamoyl)cyclopropanesul-fonylaminocarbonyl]-2-vinylcyclopropylcarbamoyl}-4-(7-methoxy-2-phenylquinolin-4-yloxy)pyrrolidine-1-carbon-yl]-2,2-dimethylpropyl}carbamicacid tert-butyl ester]
IC50 [1]: < 50 nM | EC50 [2, 3]: < 50 nM

C=CC1C[C@]1(NC(=O)[C@@H]1C[C@@H](Oc2cc(-c3ccccc3)nc3cc(OC)ccc23)CN1C(=O)[C@@H](NC(=O)OC1CCCC1)C(C)(C)C)C(=O)NS(=O)(=O)C1(C)CC1 (stereo in doubt) [Compound 12, (1-{4-(7-Methoxy-2-phenyl-quinolin-4-yloxy)-2-[1-(1-methylcyclopropanesulfonyl-aminocarbonyl)-2-vinyl-cyclopropylcarbamoyl]-pyrrolidine-1-carbonyl}-2,2-dimethylpropyl)carbamic acid cyclopentyl ester]
IC50 [1]: < 50 nM | EC50 [2, 3]: < 50 nM

C=C[C@@H]1C[C@]1(NC(=O)[C@@H]1C[C@@H](Oc2cc(-c3ccccc3)nc3cc(OC)ccc23)CN1C(=O)[C@@H](NC(=O)OC1CCOCC1)C(C)(C)C)C(=O)NS(=O)(=O)C1(Cc2ccccc2)CC1 [Compound 56, {1-[2-[1-(1-Benzyl-cyclopropanesulfonylaminocarbonyl)-2-vinyl-cyclopropylcarbamoyl]-4-(7-methoxy-2-phenyl-quinolin-4-yloxy)-pyrrolidine-1-carbonyl]-2,2-dimethyl-propyl}-carbamic acid tetrahydro-pyran-4-yl Ester]
IC50 [1]: < 50 nM | EC50 [2, 3]: 50 to 500 nM

C=C[C@@H]1C[C@]1(NC(=O)[C@@H]1C[C@@H](Oc2cc(-c3ccccc3)nc3cc(OC)ccc23)CN1C(=O)[C@@H](NC(=O)OC(C)(C)C)C(C)(C)C)C(=O)NS(=O)(=O)C1(COC(C)C)CC1 [Compound 37, {1-[2-[1-(1-Isopropoxymethyl-cyclopropanesulfonylaminocarbonyl)-2-vinyl-cyclopropylcarbamoyl]-4-(7-methoxy-2-phenyl-quinolin-4-yloxy)-pyrrolidine-1-carbonyl]-2,2-dimethyl-propyl}-1-carbamic acid tert-butyl ester]
IC50 [1]: < 50 nM | EC50 [2, 3]: < 50 nM

C=CC1C[C@]1(NC(=O)[C@@H]1C[C@@H](Oc2cc(-c3ccccc3)nc3cc(OC)ccc23)CN1C(=O)[C@@H](NC(=O)OC(C)(C)C)C(C)(C)C)C(=O)NS(=O)(=O)C1(Cc2ccccc2)CC1 (stereo in doubt) [Compound 5, {1-[2-[1-(1-Benzylcyclopropanesulfonyl-aminocarbonyl)-2-vinyl-cyclopropylcarbamoyl]-4-(7-methoxy-2-phenylquinolin-4-yloxy)-pyrrolidine-1-carbonyl]-2,2-dimethylpropyl}-carbamic acid tert-butyl ester]
IC50 [1]: < 50 nM | EC50 [2, 3]: < 50 nM

C=C[C@@H]1C[C@]1(NC(=O)[C@@H]1C[C@@H](Oc2ccnc3cc(Cl)ccc23)CN1C(=O)[C@@H](NC(=O)OC1CCCC1)C(C)(C)C)C(=O)NS(=O)(=O)C1(C)CC1 [Compound 63, (1-{4-(7-Chloro-quinolin-4-yloxy)-2-[1-(1-methyl-cyclopropanesulfonylaminocarbonyl)-2-vinyl-cyclopropylcarbamoyl]-pyrrolidine-1-carbonyl}-2,2-dimethyl-propyl)-carbamic acid cyclopentyl ester]
IC50 [1]: < 50 nM | EC50 [2, 3]: < 50 nM

C=C[C@@H]1C[C@]1(NC(=O)[C@@H]1C[C@@H](Oc2cc(-c3ccccc3)nc3cc(OC)ccc23)CN1C(=O)[C@@H](NC(=O)OC(C)(C)C)C(C)(C)C)C(=O)NS(=O)(=O)C1(Cc2cc(C)on2)CC1 [Compound 51, [1-(4-(7-Methoxy-2-phenyl-quinolin-4-yloxy)-2-{1-[1-(5-methyl-isoxazol-3-ylmethyl)-cyclopropanesulfonylaminocarbonyl]-2-vinyl-cyclopropylcarbamoyl}-pyrrolidine-1-carbonyl)-2,2-dimethyl-propyl]-carbamic acid tert-butyl ester]
IC50 [1]: < 50 nM | EC50 [2, 3]: < 50 nM

COc1ccc2c(O[C@@H]3C[C@@H](C(=O)NC4(C(=O)NS(=O)(=O)C5(CC6CC6)CC5)CC45CC5)N(C(=O)[C@@H](NC(=O)OC(C)(C)C)C(C)(C)C)C3)cc(-c3ccccc3)nc2c1 (mixture of isomers) [Compound 202, {1-[2-[1-(1-Cyclopropylmethyl-cyclopropanesulfonylaminocarbonyl)-spiro[2.2]pent-1-ylcarbamoyl]-4-(7-methoxy-2-phenyl-quinolin-4-yloxy)-pyrrolidine-1-carbonyl]-2,2-dimethyl-propyl}-carbamic acid tert-butyl ester]
IC50 [1]: 50 to 500 nM | EC50 [2, 3]: 500 to 5000 nM

C=C[C@@H]1C[C@]1(NC(=O)[C@@H]1C[C@@H](Oc2cc(-c3ccccc3)nc3cc(OC)ccc23)CN1C(=O)[C@@H](NC(=O)NCC)C(C)(C)C)C(=O)NS(=O)(=O)C1(Cc2ccccc2)CC1 [Compound 61, 1-[2-(3-Ethyl-ureido)-3,3-dimethyl-butyryl]-4-(7-methoxy-2-phenyl-quinolin-4-yloxy)-pyrrolidine-2-carboxylic acid [1-(1-benzyl-cyclopropanesulfonylaminocarbonyl)-2-vinyl-cyclopropyl]-amide]
IC50 [1]: < 50 nM | EC50 [2, 3]: 50 to 500 nM

C=C[C@@H]1C[C@]1(NC(=O)[C@@H]1C[C@@H](Oc2cc(-c3ccccc3)nc3cc(OC)ccc23)CN1C(=O)[C@@H](NC(=O)OC(C)(C)C)C(C)(C)C)C(=O)NS(=O)(=O)C1(CC)CC1 [Compound 28]
IC50 [1]: < 50 nM | EC50 [2, 3]: < 50 nM

COc1ccc2c(O[C@@H]3C[C@@H](C(=O)N[C@]4(C(=O)NS(=O)(=O)C5(Cc6ccccc6)CC5)CC4C4CC4)N(C(=O)[C@@H](NC(=O)OC(C)(C)C)C(C)(C)C)C3)cc(-c3ccccc3)nc2c1 (some centres unmarked) [Compound 204]
IC50 [1]: 50 to 500 nM | EC50 [2, 3]: 50 to 500 nM

C=C[C@@H]1C[C@]1(NC(=O)[C@@H]1C[C@@H](Oc2cc(-c3ccccc3)nc3cc(OC)ccc23)CN1C(=O)[C@@H](NC(=O)OC1CCCC1)C(C)(C)C)C(=O)NS(=O)(=O)C1(Cc2ccccc2)CC1 [Compound 55, {1-[2-[1-(1-Benzyl-cycloprolanesulfonylaminocarbonyl)-2-vinyl-cycloproylcarbamoyl]-4-(7-methoxy-2-phenyl-quinolin-4-yloxy)-pyrrolidine-1-carbonyl]-2,2-dimethyl-propyl}-carbamic acid cyclopentyl ester]
IC50 [1]: < 50 nM | EC50 [2, 3]: 50 to 500 nM

C=C[C@@H]1C[C@]1(NC(=O)[C@@H]1C[C@@H](Oc2cc(-c3ccccc3)nc3cc(OC)ccc23)CN1C(=O)[C@@H](NC(=O)Oc1ccc(C)cc1)C(C)(C)C)C(=O)NS(=O)(=O)C1(Cc2ccccc2)CC1 [Compound 100]
IC50 [1]: 50 to 500 nM | EC50 [2, 3]: 500 to 5000 nM

C=CC1C[C@]1(NC(=O)[C@@H]1C[C@@H](Oc2cc(-c3ccccc3)nc3cc(OC)ccc23)CN1C(=O)[C@@H](NC(=O)CC1CC1)C(C)(C)C)C(=O)NS(=O)(=O)C1(C)CC1 (stereo in doubt) [Compound 13, 1-[2-(2-Cyclopropyl-acetylamino)-3,3-dimethyl-butyryl]-4-(7-methoxy-2-phenylquinolin-4-yloxy)-pyrrolidine-2-carboxylic acid [1-(1-methylcyclopropanesulfonylaminocarbonyl)-2-vinylcyclopropyl]amide]
IC50 [1]: < 50 nM | EC50 [2, 3]: < 50 nM

C=C[C@@H]1C[C@]1(NC(=O)[C@@H]1C[C@@H](Oc2cc(C3CC3)nc3cc(OC)ccc23)CN1C(=O)[C@@H](NC(=O)OC(C)(C)C)C(C)(C)C)C(=O)NS(=O)(=O)C1(Cc2ccccc2)CC1 [Compound 68, BOCNH—P3(L-t-BuGly)-P2[(4R)-(2-cyclopropyl-7-methoxyquinoline-4-oxo)-S-proline]-P1(1R,2S Vinyl Acca)-CONHSO2(1-benzylclopropan-1-yl)]
IC50 [1]: < 50 nM | EC50 ([2]; Huh-7, read-out: EC50 range): 50 to 500 nM

C=C[C@@H]1C[C@]1(NC(=O)[C@@H]1C[C@@H](Oc2cc(-c3ccccc3)nc3cc(OC)ccc23)CN1C(=O)[C@@H](NC(=O)OCCOC)C(C)(C)C)C(=O)NS(=O)(=O)C1(Cc2ccccc2)CC1 [Compound 104]
IC50 [1]: 50 to 500 nM | EC50 [2, 3]: 500 to 5000 nM
